Assay results published in PMC6409644, “The Inhibitory Effect of Celangulin V on the ATP Hydrolytic Activity of the Complex of V-ATPase Subunits A and B in the Midgut of Mythimna separata” (Toxins, 2019).

How the values were obtained:
[1] = molecular target: T1, V-ATPase subunit A (TSCA mutant) in complex with subunit B (Mythimna separata, UniProt A0A0U1XFD8+A0AAD8DTT7, A0AAD8DTT7:C254A/A0AAD8DTT7:T257S); assay: inhibition of ATP hydrolysis (inorganic phosphate release) by the purified complex; IC50 […], Ki calculated; CV was a suspension; format: biochemical
T1 construct: gene PYW07_012492; with V-ATPase subunit B

[2] = system: T2, Nc1ncnc2c1ncn2[C@@H]1O[C@H](COP(=O)(O)OP(=O)(O)OP(=O)(O)O)[C@@H](O)[C@H]1O; assay: ATP hydrolysis kinetics (inorganic phosphate release), Lineweaver–Burk Km; format: biochemical, Mythimna separata; conditions: Mg2+ ([…] MgCl2) ATP binding site of the AB complex (by docking: D416, D436, K437, K438 of subunit A and T439 of subunit B)
T2 construct: with V-ATPase subunit B

T1 sequence (A0AAD8DTT7 1-617, stated change not applied): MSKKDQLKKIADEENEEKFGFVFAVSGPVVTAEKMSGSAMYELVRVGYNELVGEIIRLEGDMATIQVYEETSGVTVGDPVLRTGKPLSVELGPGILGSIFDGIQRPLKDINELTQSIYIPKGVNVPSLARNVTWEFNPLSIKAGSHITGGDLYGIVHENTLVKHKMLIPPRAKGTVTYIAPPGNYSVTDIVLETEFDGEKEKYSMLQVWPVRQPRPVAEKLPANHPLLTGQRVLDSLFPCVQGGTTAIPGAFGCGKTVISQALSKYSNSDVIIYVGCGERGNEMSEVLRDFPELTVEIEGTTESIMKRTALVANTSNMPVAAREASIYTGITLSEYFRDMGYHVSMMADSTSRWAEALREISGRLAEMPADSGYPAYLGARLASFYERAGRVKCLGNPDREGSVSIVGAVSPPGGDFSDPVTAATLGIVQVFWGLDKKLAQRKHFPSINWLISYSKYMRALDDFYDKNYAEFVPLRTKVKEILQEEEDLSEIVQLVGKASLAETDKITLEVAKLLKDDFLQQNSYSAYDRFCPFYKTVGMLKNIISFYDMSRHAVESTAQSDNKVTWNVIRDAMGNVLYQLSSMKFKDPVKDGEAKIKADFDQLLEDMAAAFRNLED
T1 sequence (A0A0U1XFD8 1-497): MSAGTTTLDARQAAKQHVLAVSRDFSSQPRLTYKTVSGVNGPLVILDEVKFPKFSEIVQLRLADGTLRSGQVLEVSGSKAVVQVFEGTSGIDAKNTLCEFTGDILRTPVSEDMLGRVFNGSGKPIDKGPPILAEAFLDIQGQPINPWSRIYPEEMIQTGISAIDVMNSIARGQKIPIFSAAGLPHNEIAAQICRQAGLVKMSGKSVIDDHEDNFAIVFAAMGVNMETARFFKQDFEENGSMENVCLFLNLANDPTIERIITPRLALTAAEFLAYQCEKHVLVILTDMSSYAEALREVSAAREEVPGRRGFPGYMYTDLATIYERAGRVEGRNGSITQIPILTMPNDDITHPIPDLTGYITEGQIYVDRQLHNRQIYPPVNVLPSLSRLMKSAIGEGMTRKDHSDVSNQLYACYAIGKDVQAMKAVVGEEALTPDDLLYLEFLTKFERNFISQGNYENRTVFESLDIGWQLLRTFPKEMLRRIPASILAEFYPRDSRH

Molecule | Ki [1] [µM] | Km [2] [µM]
CC(=O)O[C@H]1C[C@](C)(O)C23OC(C)(C)[C@H]([C@H](OC(=O)C(C)C)[C@@H](OC(=O)c4ccccc4)[C@]2(COC(=O)C(C)C)[C@H]1OC(C)=O)[C@H]3O [CV, Celangulin V] | 10 | –
V-ATPase subunit A (TSCA mutant) in complex with subunit B (Mythimna separata; A0AAD8DTT7:C254A/A0AAD8DTT7:T257S) | – | 268
